Measurements taken from patent US20260262647A1, “Synergistic Compositions Containing Guanidine” (Thor GmbH, priority 2023, published 2026).
Where “and” joins values, the source holds several entries; their conditions need not be identical. Equal values may be shown once.

How the values were obtained:
[1] = test system: Pseudomonas spec. DSM 115322; assay: Minimum inhibitory concentrations and synergy index in Müller-Hinton broth; format: cell-based
Description: Test organisms used were Gram-negative bacterial species from the group of pseudomonads, Pseudomonas putida DSM 115323 and Pseudomonas spec. DSM 115322. For this purpose, mixtures with different concentrations of the respective active substances were prepared and tested for their effect on the pseudomonads. The test was run in Müller-Hinton broth MHB with a cell density of 10^6 microbes per ml. When organic acids are used as a combination partner with the guanidine, MHB was adjusted to pH 5.5.
The incubation was run in microplates at 30° C. for 48 hours. After 48 hours, the batches were evaluated for turbidity resulting from growth, and optical density was additionally determined photometrically. In this way, the minimum inhibitory concentrations (MICs) of the two actives were determined individually and in combination.
The calculation was done according to the standard method of F. C. Kull et al., Applied Microbiology, vol. 9 (1961), p. 538.
This involves calculating the synergy index (SI) by the following formula:
[formula] • Qa=concentration of component A in the A+B mixture • QA=concentration of component A as the sole biocide • Qb=concentration of component B in the A+B mixture • QB=concentration of component B as the sole biocide
If the synergy index is greater than 1, this means that there is antagonism. If the synergy index assumes the value 1, this means that the effect of the two biocides/compounds is additive. If the synergy index assumes a value of less than 1, this means that there is synergism between the two biocides/compounds.

[2] = test system: bacteria mixture A; assay: Emulsion paint inoculated three times with bacteria mixture A, live bacteria count CFU/g; format: cell-based; conditions: for CFU/g after inoculation: emulsion paint, 7 d
Excerpt: In example 34, the synergistic interaction between guanidine and a zinc compound (zinc oxide) with respect to microbial infestation was examined in an emulsion paint by adding particular amounts of guanidine in the form of guanidine hydrochloride and a zinc compound in the form of zinc oxide, and tested for stability to microbial infestation. The paint tested was an emulsion paint based on styrene-acrylate binder (PVK 77%, pH 8.8) for indoor use, produced in the laboratory, without addition of the usual preservatives.
The samples were inoculated repeatedly, three times in total, with a bacterial cell suspension of the following composition (2% v/w).
• Alcaligenes faecalis NCIMB 13145 • Escherichia coli DSM 13631 • Burkholderia cepacia DSM 9241 • Staphylococcus aureus DSM 799 • Pseudomonas aeruginosa DSM 50071 • Pseudomonas putida DSM 13624
The cell suspension of the bacteria mixture A was produced by growing the individual bacteria at 30° C. for 24 h in liquid culture on a shaker. The growth medium used for the bacteria was Müller-Hinton liquid medium. After growing, the individual liquid cultures were centrifuged, and the cells were resuspended in physiological saline solution. In order to adjust the mixture to a total cell count of 10^9/ml, the individual bacteria suspensions, if necessary, were diluted accordingly before being combined with saline solution. The cell count of the inoculum was determined in each case by chamber counting.
After each inoculation and after incubation at 30° C. for 7 days, microbial infestation was evaluated in the samples by determining the live bacteria count per g of paint (colony-forming units, CFU/g). The CFU/g was determined each time by taking an aliquot (1 g) from the previously homogenized sample and running a serial decadic dilution series in physiological saline solution (0.9% NaCl) by streaking on tryptic soy agar, followed by incubation of the agar plates at 30° C. for 48 h.

[3] = mixture with guanidine, Qa, 48 hours at 30° C.

## CCCCC(O)CO (stereo not shown) [hexane-1,2-diol]
[1]; guanidine and hexane-1,2-diol, Qa
  Synergy index Qa/QA + Qb/QB: 1.00
[1]; hexane-1,2-diol alone, 48 hours at 30° C.
  QB: Concentration of hexane-1,2-diol as the sole agent that shows an endpoint: 7500 ppm

## CCCCCC(O)CO (stereo not shown) [heptane-1,2-diol]
[1]; guanidine and heptane-1,2-diol, Qa
  Synergy index Qa/QA + Qb/QB: 1.00
[1]; heptane-1,2-diol alone, 48 hours at 30° C.
  QB: Concentration of heptane-1,2-diol as the sole agent that shows an endpoint: 3750 ppm

## O=C(O)c1ccccc1O [salicylic acid]
[1]; guanidine and salicylic acid, Qa, pH 5.5
  Synergy index Qa/QA + Qb/QB: 1.00
[1]; salicylic acid (added as sodium salicyate) alone, MHB adjusted to pH 5.5, 48 hours at 30° C.
  QB: Concentration of salicylic acid as the sole agent that shows an endpoint: 1713 ppm

## CCCCCCOCC(O)CO (stereo not shown) [hexylglycerol]
[1]; guanidine and hexylglycerol, Qa
  Synergy index Qa/QA + Qb/QB: 1.00
[1]; hexylglycerol alone, 48 hours at 30° C.
  QB: Concentration of hexylglycerol as the sole agent that shows an endpoint: 2000 ppm

## NCCO [MEA, monoethanolamine]
[1]; MEA alone, 48 hours at 30° C.
  QB: Concentration of MEA as the sole agent that shows an endpoint: 2000 ppm
[1]; guanidine and MEA, Qa
  Synergy index Qa/QA + Qb/QB: 1.00

## CCCC(O)CO (stereo not shown) [pentane-1,2-diol]
[1]; guanidine and pentane-1,2-diol, Qa
  Synergy index Qa/QA + Qb/QB: 1.00
[1]; pentane-1,2-diol alone, 48 hours at 30° C.
  QB: Concentration of pentane-1,2-diol as the sole agent that shows an endpoint: 10000 ppm

## [O]=[Zn] [Zinc oxide, zinc oxide]
[2]; Zinc oxide 125 ppm (100 ppm Zn), 1. inoculation
  CFU/g after inoculation: 9.4 × 10^5 CFU/g
[2]; Zinc oxide 125 ppm (100 ppm Zn), 2. inoculation
  CFU/g after inoculation: >10^6 CFU/g
[2]; Zinc oxide 125 ppm (100 ppm Zn), 3. inoculation
  CFU/g after inoculation: >10^6 CFU/g
[2]; Zinc oxide 250 ppm (201 ppm Zn), 1. inoculation
  CFU/g after inoculation: 2.2 × 10^4 CFU/g
[2]; Zinc oxide 250 ppm (201 ppm Zn), 2. inoculation
  CFU/g after inoculation: >10^6 CFU/g
[2]; Zinc oxide 250 ppm (201 ppm Zn), 3. inoculation
  CFU/g after inoculation: >10^6 CFU/g
[2]; Zinc oxide 500 ppm (402 ppm Zn), 1. inoculation
  CFU/g after inoculation: 6.6 × 10^4 CFU/g
[2]; Zinc oxide 500 ppm (402 ppm Zn), 2. inoculation
  CFU/g after inoculation: >10^6 CFU/g
[2]; Zinc oxide 500 ppm (402 ppm Zn), 3. inoculation
  CFU/g after inoculation: >10^6 CFU/g
[2]; Zinc oxide 1000 ppm (803 ppm Zn), 1. inoculation
  CFU/g after inoculation: 9.9 × 10^3 CFU/g
[2]; Zinc oxide 1000 ppm (803 ppm Zn), 2. inoculation
  CFU/g after inoculation: >10^6 CFU/g
[2]; Zinc oxide 1000 ppm (803 ppm Zn), 3. inoculation
  CFU/g after inoculation: >10^6 CFU/g
[2]; Zinc oxide 2500 ppm (2009 ppm Zn), 1. inoculation
  CFU/g after inoculation: <100 CFU/g
[2]; Zinc oxide 2500 ppm (2009 ppm Zn), 2. inoculation
  CFU/g after inoculation: <100 CFU/g
[2]; Zinc oxide 2500 ppm (2009 ppm Zn), 3. inoculation
  CFU/g after inoculation: <100 CFU/g
[2]; guanidine and zinc in emulsion paint, Qa, Qb
  Synergy index Qa/QA + Qb/QB: 1.00
[2]; zinc (added as zinc oxide) alone in emulsion paint, endpoint after 3 inoculations up to a maximum of 1000 CFU/g
  QB: Concentration of zinc as the sole agent that shows an endpoint: 2009 ppm

## Cn1sccc1=O [MIT, 2-methyl-4-isothiazolin-3-one]
[1]; MIT alone, 48 hours at 30° C.
  QB: Concentration of MIT as the sole agent that shows an endpoint: 75 ppm
[1]; guanidine and MIT, Qa
  Synergy index Qa/QA + Qb/QB: 1.00

## CCC(N)(CO)CO [AEPD, 2-aminoethylpropane-1,3-diol]
[1]; AEPD alone, 48 hours at 30° C.
  QB: Concentration of AEPD as the sole agent that shows an endpoint: 5000 ppm
[1]; guanidine and AEPD, Qa
  Synergy index Qa/QA + Qb/QB: 1.00

## [O-][n+]1ccccc1S [pyrithione]
[1]; guanidine and pyrithione, Qa
  Synergy index Qa/QA + Qb/QB: 1.00
[1]; pyrithione (added as sodium pyrithione) alone, 48 hours at 30° C.
  QB: Concentration of pyrithione as the sole agent that shows an endpoint: 127 ppm

## O=C(O)c1ccccc1 [benzoic acid]
[1]; benzoic acid (added as sodium benzoate) alone, MHB adjusted to pH 5.5, 48 hours at 30° C.
  QB: Concentration of benzoic acid as the sole agent that shows an endpoint: 1680 ppm
[1]; guanidine and benzoic acid, Qa, pH 5.5
  Synergy index Qa/QA + Qb/QB: 1.00

## CC(C)(N)CO [AMP, 2-amino-2-methyl-1-propanol]
[1]; AMP alone, 48 hours at 30° C.
  QB: Concentration of AMP as the sole agent that shows an endpoint: 2500 ppm
[1]; guanidine and AMP, Qa
  Synergy index Qa/QA + Qb/QB: 1.00

## N#CCCC(Br)(C#N)CBr (stereo not shown) [DBDCB, dibromodicyanobutane]
[1]; DBDCB alone, 48 hours at 30° C.
  QB: Concentration of DBDCB as the sole agent that shows an endpoint: 250 ppm
[1]; guanidine and DBDCB, Qa
  Synergy index Qa/QA + Qb/QB: 1.00

## C/C=C/C=C/C(=O)O [sorbic acid]
[1]; guanidine and sorbic acid, Qa, pH 5.5
  Synergy index Qa/QA + Qb/QB: 1.00
[1]; sorbic acid (added as potassium sorbate) alone, MHB adjusted to pH 5.5, 48 hours at 30° C.
  QB: Concentration of sorbic acid as the sole agent that shows an endpoint: 1849 ppm

## Cn1sc2ccccc2c1=O [MBIT, N-methyl-1,2-benzisothiazolin-3-one]
[1]; MBIT alone, 48 hours at 30° C.
  QB: Concentration of MBIT as the sole agent that shows an endpoint: 300 ppm
[1]; guanidine and MBIT, Qa
  Synergy index Qa/QA + Qb/QB: 1.00

## OCCCc1ccccc1
[1]; guanidine and phenylpropanol, Qa
  Synergy index Qa/QA + Qb/QB: 1.00
[1]; phenylpropanol alone, 48 hours at 30° C.
  QB: Concentration of phenylpropanol as the sole agent that shows an endpoint: 2000 ppm

## O=[N+]([O-])C(Br)(CO)CO [bronopol]
[1]; bronopol alone, 48 hours at 30° C.
  QB: Concentration of bronopol as the sole agent that shows an endpoint: 25 ppm
[1]; guanidine and bronopol, Qa
  Synergy index Qa/QA + Qb/QB: 1.00

## O=C(O)CC(O)(CC(=O)O)C(=O)O [citric acid]
[1]; citric acid (added as trisodium citrate) alone, MHB adjusted to pH 5.5, 48 hours at 30° C.
  QB: Concentration of citric acid as the sole agent that shows an endpoint: 51293 ppm

## CCCCn1sc2ccccc2c1=O [BBIT, N-butyl-1,2-benzisothiazolin-3-one]
[1]; BBIT alone, 48 hours at 30° C.
  QB: Concentration of BBIT as the sole agent that shows an endpoint: 400 ppm
[1]; guanidine and BBIT, Qa
  Synergy index Qa/QA + Qb/QB: 1.00

## CCCCCCCCn1sccc1=O [OIT, octylisothiazolinone]
[1]; OIT alone, 48 hours at 30° C.
  QB: Concentration of OIT as the sole agent that shows an endpoint: 250 ppm
[1]; guanidine and OIT, Qa
  Synergy index Qa/QA + Qb/QB: 1.00

## O=C(O)CN(CCN(CC(=O)O)CC(=O)O)CC(=O)O [EDTA, ethylenediaminetetraacetic acid]
[1]; EDTA alone, 48 hours at 30° C.
  QB: Concentration of EDTA as the sole agent that shows an endpoint: 300 ppm
[1]; guanidine and EDTA, Qa
  Synergy index Qa/QA + Qb/QB: 1.00
[1]; [3]
  Qb (EDTA): Concentration of EDTA in the mixture that shows an endpoint: 250 ppm and 200 ppm and 175 ppm and 125 ppm

## OCCc1ccccc1 [phenethyl alcohol]
[1]; guanidine and phenethyl alcohol, Qa
  Synergy index Qa/QA + Qb/QB: 1.00
[1]; phenethyl alcohol alone, 48 hours at 30° C.
  QB: Concentration of phenethyl alcohol as the sole agent that shows an endpoint: 2500 ppm

## CC(O)C(=O)O (stereo not shown) [lactic acid]
[1]; guanidine and lactic acid, Qa, pH 5.5
  Synergy index Qa/QA + Qb/QB: 1.00
[1]; lactic acid (added as sodium L-lactate) alone, MHB adjusted to pH 5.5, 48 hours at 30° C.
  QB: Concentration of lactic acid as the sole agent that shows an endpoint: 15896 ppm

## OCc1ccccc1 [benzyl alcohol]
[1]; benzyl alcohol alone, 48 hours at 30° C.
  QB: Concentration of benzyl alcohol as the sole agent that shows an endpoint: 2000 ppm
[1]; guanidine and benzyl alcohol, Qa
  Synergy index Qa/QA + Qb/QB: 1.00

## CC(O)(P(=O)(O)O)P(=O)(O)O [HEDP, (1-hydroxyethylidene)bisphosphonic acid]
[1]; HEDP alone, 48 hours at 30° C.
  QB: Concentration of HEDP as the sole agent that shows an endpoint: 300 ppm
[1]; guanidine and HEDP, Qa
  Synergy index Qa/QA + Qb/QB: 1.00
[1]; [3]
  Qb (HEDP): Concentration of HEDP in the mixture that shows an endpoint: 1000 ppm

## CCCCC(CC)COCC(O)CO (stereo not shown) [EHG, ethylhexylglycerol]
[1]; EHG alone, 48 hours at 30° C.
  QB: Concentration of EHG as the sole agent that shows an endpoint: 2000 ppm
[1]; guanidine and EHG, Qa
  Synergy index Qa/QA + Qb/QB: 1.00

## CCCCCCC(O)CO (stereo not shown) [octane-1,2-diol]
[1]; guanidine and octane-1,2-diol, Qa
  Synergy index Qa/QA + Qb/QB: 1.00
[1]; octane-1,2-diol alone, 48 hours at 30° C.
  QB: Concentration of octane-1,2-diol as the sole agent that shows an endpoint: 2000 ppm

## Oc1ccccc1-c1ccccc1 [oPP, o-phenylphenol]
[1]; guanidine and oPP, Qa
  Synergy index Qa/QA + Qb/QB: 1.00
[1]; oPP alone, 48 hours at 30° C.
  QB: Concentration of oPP as the sole agent that shows an endpoint: 750 ppm

## CC(C)O [isopropanol]
[1]; guanidine and isopropanol, Qa
  Synergy index Qa/QA + Qb/QB: 1.00
[1]; isopropanol alone, 48 hours at 30° C.
  QB: Concentration of isopropanol as the sole agent that shows an endpoint: 60000 ppm

## N#CC(Br)(Br)C(N)=O [DBNPA, dibromonitrilopropionamide]
[1]; DBNPA alone, 48 hours at 30° C.
  QB: Concentration of DBNPA as the sole agent that shows an endpoint: 25 ppm
[1]; guanidine and DBNPA, Qa
  Synergy index Qa/QA + Qb/QB: 1.00
